# Results from patent US9675591B2, “Methods for treating seizure disorders and pain” (THE REGENTS OF THE UNIVERSITY OF CALIFORNIA, priority 2013, dated 2017).
# Entries after “also recorded” stand apart in the source; their conditions may differ.
# Columns and labels:
# [1] = tested on: CA1 pyramidal neurons; experiment: Hippocampal slice recordings; type: cell-based, mouse; conditions: for effect on AP firing: 1-s 150-pA current injection
# Procedure: Brain slice preparation was approved by the University of California, Irvine, Institutional Animal Care and Use Committee. Male C57BL/6 J mice (postnatal day 23) were anesthetized with halothane, decapitated, and brains transferred to an ice-cold, sucrose artificial cerebral spinal fluid (ACSF; Sigma-Aldrich). Hippocampal slices (300 μm) were prepared using a Leica VT1200S vibrating blade microtome (Leica Microsystems Inc., Buffalo Grove, Ill.). Slices were incubated at 33° C. in oxygenated (95% O2, 5% CO2) standard ACSF containing the following (mM) for at least 1 h before recordings: 126 NaCl, 2.5 KCl, 1.25 NaHPO4, 1.2 MgSO4, 10 glucose, 1.2 CaCl2, and 26 NaHCO3. Slices were submerged and continuously perfused at 2 ml/min with oxygenated ACSF at 33° C. during the current-clamp experiments. Voltage-clamp experiments were performed in the same ACSF but with 1 mM tetraethylammonium chloride (Sigma-Aldrich) and 0.5 μM tetrodotoxin (Sigma-Aldrich) added. Pyramidal CA1 neurons were visualized and identified with an upright microscope (Zeiss Axioskop Plus; Zeiss Jena, Germany) with infrared differential interference contrast optics. Recording pipettes (2-5 MΩ) were filled with intracellular solution containing (in mM): 126 K-gluconate; 4 KCl; 10 HEPES; 2 Mg-adenosine triphosphate; 0.3 Tris-guanosine triphosphate; 10 phosphocreatine, pH 7.20, 270-290 mOsm. In the current-clamp mode, depolarizing current pulses were applied from a membrane potential of −65 mV to evoke tonic firing activity. In the voltage-clamp mode, neurons were held at −55 mV and KCa currents elicited by 50-ms voltage steps to 10 mV, applied every 10 s. SKA-19 or NS309 were perfused for 10 min into the bath to allow for equilibrium. Recordings were performed in the whole-cell mode using a MultiClamp 700B amplifier (Molecular Devices), […] and sampled at 20 kHz with a Digidata 1322A digitizer (Molecular Devices). Data were acquired and analyzed with pClamp 10.2 software (Molecular Devices).
# [2] = tested on: hippocampal kindled rats; experiment: Hippocampal kindled seizures; type: in vivo
# Procedure: Bipolar electrodes were surgically implanted into the hippocampus of anesthetized rats, which were allowed to recover for one week. One week after the surgery, the rats were stimulated with suprathreshold trains of 200 μAmps for 10 sec, 50 Hz, every 30 min for 6 hours (12 stimulations per day) on alternate days (4 to 5 stimulus days) until they were fully kindled. One week later the effect of a single i.p. dose of test compound was assessed on behavioral seizure score (BSS) and afterdischarge duration (ADD). An initial group of kindled rats (n=6-8) were tested at 15, 45, 75, 105, 135, 165, and 195 min after drug administration. Results obtained at the various time points were compared with the last control stimulus delivered 15 minutes prior to drug administration. Thus, each animal serves as its own control. The BSS's were scored according to the following criteria: Stage 1—mouth and facial clonus; Stage 2—stage 1 plus head nodding; Stage 3—stage 2 plus forelimb clonus; Stage 4—stage 3 plus rearing; Stage 5—stage 4 plus repeated rearing and falling. The afterdischarge threshold (ADT) is measured in the kindled rat. […] The BSS and ADD for each dose were averaged at the TPE, the S.E.M. calculated, and the significance of the difference compared to control values determined. (Significant differences in BSS from control and treated groups are determined by the non-parametric Mann-Whitney U test).
# [3] = tested on: cultured hippocampal neurons; experiment: Synchronous intracellular Ca2+ oscillations (FLIPR); type: cell-based, mouse; conditions: for effect on picrotoxin (PTX) induced Ca2+ oscillations: added 10 min before PTX
# Procedure: Animals were treated humanely and with regard for alleviation of suffering according to protocols approved by the Institutional Animal Care and Use Committee of the University of California, Davis. Hippocampal neuron cultures were dissociated from hippocampi dissected from C57Bl/6J mouse pups at postnatal day 0-1 and maintained in Neurobasal complete medium (Neurobasal medium supplemented with NS21, 0.5 mM L-glutamine, HEPES) with 5% fetal bovine serum. For Ca^2+ imaging studies using FLIPR, dissociated hippocampal cells were plated onto poly-L-lysine coated clear-bottom, black wall, 96-well imaging plate (BD, Franklin Lakes, N.J., USA) at a density of 0.8×10^5/well. The medium was changed twice a week by replacing half the volume of culture medium in the well with serum-free Neurobasal complete medium. The neurons were maintained at 37° C. with 5% CO2 and 95% humidity.
# Hippocampal neurons 14-17 DIV were used for simultaneous measurements of intracellular Ca^2+ transients in all wells of a 96-well plate as described previously (Cao et al., 2012). After aspiration, the cells were incubated with 4 μM Fluo-4 in Locke's buffer containing 0.5 mg/ml bovine serum albumin for 1 h at 37° C. The plates were then transferred to the FLIPR (Molecular Devices, Sunnyvale, Calif., USA) cell plate stage. After 4 min of baseline recordings, Ca^2+ signals were then recorded for 10 min in the presence or absence of SKA-19 followed by addition of the Ca^2+ enhancing agents 4-AP or PTX, and the intracellular Ca^2+ concentration ([Ca^2+]i) was monitored for an additional 30 min. Ca^2+-enhancing agents triggered an immediate rise in [Ca^2+]i that was quantified by determining the area under the curve of the Fluo-4 arbitraiy fluorescence units for a duration of 5 min following agent addition.
# Hippocampal neurons between 13-17 days in vitro (DIV) were used to investigate how Ca^2+ enhancing agent alters synchronous Ca^2+ oscillations that normally occur in healthy neurons at this developmental stage. This method permits simultaneous measurements of intracellular Ca^2+ transients in all wells of a 96-well plate as described previously (Cao et al., 2012). Baseline recordings were acquired in Locke's buffer (8.6 mM HEPES, 5.6 mM KCl, 154 mM NaCl, 5.6 mM glucose, 1.0 mM MgCl2, 2.3 mM CaCl2, and 0.0001 mM glycine, pH 7.4) for 10 min in presence or absence of SKA-19 followed by addition of the Ca^2+ enhancing agents 4-aminopyridine (4-AP) or picrotoxin using a programmable 96-channel pipetting robotic system, and the intracellular Ca^2+ concentration ([Ca^2+]i) was monitored for an additional 30 min. Unless otherwise indicated, pharmacological interventions were introduced 10 min prior to Ca^2+ enhancing agent. Ca enhancing agent triggered an immediate rise in [Ca^2+]i that was quantified by determining the area under the curve (AUC) of the Fluo-4 arbitrary fluorescence units for a duration of 5 min following Ca^2+ enhancing agent addition. Ca^2+ enhancing agent also altered the frequency and amplitude of neuronal synchronous Ca^2+ oscillations, which were analyzed during the 10 min period after addition of Ca^2+ enhancing agent […].
# [4] = tested on: lamotrigine resistant amygdala kindled rats; experiment: Lamotrigine resistant amygdala kindled rats; type: in vivo
smiles,measurement,setting,value
"Nc1nc2ccc(SC(F)(F)F)cc2s1 [SKA-19, 6-((trifluoromethyl)thio)benzo[d]thiazol-2-amine]",effect on AP firing,[1]; 1 μM,slowed down AP firing
same,reduction of the number of spikes,"[1]; 10 μM, all injected current levels",roughly 50%
same,after-hyperpolarization amplitude of individual APs,"[1]; 10 μM, current-clamp",increase in after-hyperpolarization amplitude
same,effect on AP firing,[1]; 25 μM,completely suppressed
same,mAHP current amplitude,"[1]; voltage-clamp, 10 μM",modest but significant increase; also recorded: increases the amplitude
same,afterdischarge duration (ADD),"[2]; 30 mg/kg i.p., two fully kindled rats",completely suppressed
same,seizure score after treatment,"[2]; 30 mg/kg i.p., two fully kindled rats, predrug score 4-5",0
same,ED50,"[2]; Rattus norvegicus, ip, 2 h",5.47 mg/kg
same,toxicity in kindled rats,[2]; highest dose 15 mg/kg,no evidence of toxicity
same,effect on spontaneous Ca2+ oscillations,[3]; SKA-19 1 μM or less,did not significantly inhibit; also recorded: no effect
same,effect on spontaneous Ca2+ oscillations,[3]; SKA-19 3 μM or more,completely eliminated
same,effect on 4-AP induced initial Ca2+ rise and oscillations,[3]; added 10 min before 4-AP,potently suppressed; also recorded: inhibited
same,effect on picrotoxin (PTX) induced Ca2+ oscillations,[3],potently suppressed
same,effect on picrotoxin (PTX) induced Ca2+ oscillations,[3]; listed as SKA-10,inhibited
same,rats protected,[4]; 6 mg/kg,2 out of 8
same,rats protected,[4]; 50 mg/kg,3 out of 7
